A word on the IC50: it is the point on the concentration scale where inhibition reaches its midpoint. Higher therefore signals weaker potency in that assay.

In experiment [1] the target is Prolyl 4-hydroxylase (Gallus gallus). The experiment can be described thus: ChEBML_157453. From the text: Inhibition of prolyl 4-hydroxylase activity by an indirect assay
In experiment [2] the target is prolyl 4-hydroxylase (Gallus gallus). The experiment in a line: Compound was evaluated for inhibition of Prolyl 4-hydroxylase activity in cultured embryonic chick tendon cells.

For `CN(C)c1ccc(NC(=O)c2ccc(C(=O)O)nc2)cc1`, the IC50 in experiment [1] was 4.1 µM.

Consider `O=C(Nc1ccccc1F)c1ccc(C(=O)O)nc1`, for which 11 µM corresponded to half-maximal inhibition in experiment [1] (IC50).

Turning to `O=C(O)c1ccc(NC(=O)c2ccccc2F)cn1`, the IC50 in experiment [1] is 33.8 µM.

As for `CCOc1ccccc1NC(=O)c1ccc(C(=O)O)nc1`, in experiment [1], the IC50 was determined as 32.9 µM.

In experiment [1], `O=C(Nc1ccccc1Cl)c1ccc(C(=O)O)nc1` gave an IC50 of 16.3 µM.

Turning to `O=C(Nc1ccccc1)c1ccc(C(=O)O)nc1`, the IC50 in experiment [1] is 26.5 µM.

For the compound `CCOc1ccc(C(=O)Nc2ccc(C(=O)O)nc2)cc1`, in experiment [1], the IC50 stood at 11.2 µM.

Consider `COc1cc(NC(=O)c2ccc(C(=O)O)nc2)cc(OC)c1OC`, for which it took 26.5 µM to reach half-maximal inhibition in experiment [1] (IC50).

Turning to `O=C(O)c1ccc(/C=C/c2ccc(Cl)cc2)cn1`, the IC50 in experiment [1] was 150 µM.

As for `O=C(Nc1ccc(Cl)cc1)c1ccc(C(=O)O)nc1`, in experiment [1], the IC50 came to 17.4 µM.

As for `O=C(O)c1ccc(NCc2ccc(F)cc2)cn1`, the IC50 was found to be 80 µM in experiment [2] and 31 µM in experiment [1].

For `Cc1ccc(C(=O)Nc2ccc(C(=O)O)nc2)cc1`, the IC50 in experiment [1] worked out at 16.5 µM.

For `O=C(Nc1ccc(F)cc1)c1ccc(C(=O)O)nc1`, the IC50 in experiment [1] came out at 16.1 µM.

Turning to `O=C(Nc1ccc(C(=O)O)nc1)c1ccc(F)cc1`, in experiment [1], the 50% inhibitory concentration (IC50) worked out at 51.2 µM.

In experiment [1], `O=C(O)c1ccc(OCc2ccccc2)cn1` displayed an IC50 of 39 µM.

With `CN(C)c1ccc(C(=O)Nc2ccc(C(=O)O)nc2)cc1`, inhibition in experiment [1] was half-maximal at 11.3 µM (IC50).

Take `COc1ccc(NC(=O)c2ccc(C(=O)O)nc2)cc1`: the IC50 in experiment [1] was found to be 21.1 µM.

Turning to `COc1ccccc1NC(=O)c1ccc(C(=O)O)nc1`, the 50% inhibitory concentration (IC50) in experiment [1] is 14.8 µM.

Turning to `CCOc1ccc(NC(=O)c2ccc(C(=O)O)nc2)cc1`, the IC50 in experiment [1] stood at 5 µM.

For the compound `COc1ccc(NC(=O)c2ccc(C(=O)O)nc2)c(OC)c1`, it took 16.6 µM to reach half-maximal inhibition in experiment [1] (IC50).

For `O=C(Nc1ccc([N+](=O)[O-])cc1)c1ccc(C(=O)O)nc1`, inhibition in experiment [1] was half-maximal at 44 µM (IC50).

In the case of `O=C(Nc1ccc(C(=O)O)nc1)c1ccccc1`, the IC50 in experiment [1] amounted to 25.6 µM.

In experiment [1], `Cc1ccc(NC(=O)c2ccc(C(=O)O)nc2)cc1` displayed an IC50 of 8.3 µM.

Regarding `O=C(Nc1cccc(Cl)c1)c1ccc(C(=O)O)nc1`, half-maximal inhibition in experiment [1] (IC50) required 32.2 µM.

Compound `O=C(Nc1ccc(C(=O)O)nc1)c1ccc(Cl)cc1` returned a half-maximal inhibitory concentration (IC50) in experiment [1] of 22.5 µM.
